The source of these data is paper PMC7699892, “Repositioned Drugs for Chagas Disease Unveiled via Structure-Based Drug Repositioning” (International Journal of Molecular Sciences, 2020).

Where two headings read alike, the source gives them in different places. A value given as a limit tells only on which side of the number the result lay.

In one assay the test system is T. cruzi epimastigotes. Details: method as in PMID 32560043. To be noted: cited from earlier work.
Assay [1] concerns T. cruzi. Also on record: method as in per drug in column Reference of Table 2. To be noted: class of literature evidence of trypanocidal activity; ref per drug in Table 2; cited from earlier work.
Assay [2] relates to T. cruzi reverse transcriptase. Details: method as in PMID 8913446. As to conditions: cited from earlier work.
Assay [3] has as its system T. cruzi blood trypomastigote (Ninoa strain). In words: ex vivo evaluation against blood trypomastigotes, Ninoa strain. As to conditions: Trypanosoma cruzi, 24 h at 4 °C. The format is cell-based. The text has this:
(§1) The high-priority hit drugs were subjected to experimental validation in vitro, ex vivo, and in vivo, together with a cytotoxicity assay. Ninoa and INC-5 strains of T. cruzi were used in this study. The Ninoa strain was obtained in 1986 by xenodiagnoses from an acute case of Chagas’ disease in Oaxaca, Mexico, whereas the INC-5 strain was obtained in 1997 from a chronic case of Chagas’ disease in a person in Guanajuato, Mexico.
(§2) Ex vivo evaluation of different FDA-approved drugs against Trypanosoma cruzi blood trypomastigotes. The ex vivo evaluation of the trypanocidal activity of the FDA-approved drugs was carried out according to the methodology described above. Blood from parasite infected animals was obtained from intracardiac puncture and diluted with phosphate-buffered saline (PBS), pH 7.2, until a concentration of 2 × 10^6 blood trypomastigotes/mL was obtained. From this, 195 µL of blood/well was placed in a 96-well plate and incubated at 4 °C for 24 h with 5 µL of each drug tested at different concentrations (5 µg/mL to […]). […] After incubation, live parasites were counted in a Neubauer chamber and the IC50 was calculated. Three independent experiments by triplicate were performed.

The test system of assay [4] is T. cruzi blood trypomastigote (INC-5 strain). The assay can be described thus: ex vivo evaluation against blood trypomastigotes, INC-5 strain. The format is cell-based. As to conditions: Trypanosoma cruzi.
Description: as §1, §2

The subject of assay [5] is T. cruzi epimastigote (Ninoa strain). The assay can be described thus: in vitro evaluation against epimastigotes, Ninoa strain (resazurin). The format is cell-based. As to conditions: Trypanosoma cruzi, 48 h at 28 °C. The source says: (§3) The high-priority hit drugs were subjected to experimental validation in vitro, ex vivo, and in vivo, together with a cytotoxicity assay. Ninoa and INC-5 strains of T. cruzi were used in this study. […] In vitro evaluation of different FDA-approved drugs against Trypanosoma cruzi epimastigotes. The epimastigote stage of Ninoa and INC5 strains of T. cruzi were used to evaluated the in vitro trypanocidal activity of different FDA-approved drugs. Both strains were maintained in liver infusion tryptose (LIT) medium, supplemented with 10% fetal bovine serum (FBS) and 0.1% penicillin–streptomycin. They were preserved by transferring 1 × 10^6 parasites/mL into a new culture medium every week. […] All compounds were initially prepared at 10 mg/mL, using dimethyl sulfoxide (DMSO) as diluent. Serial dilutions were performed using complemented LIT medium until concentrations of 100 to 0.46 µg/mL of each drug were obtained. […] After the incubation period, 20 µL of 2.5 mM resazurin solution were added to each well and incubated for 3 h. All assays were carried out in triplicate.
In general terms: Resazurin is reduced to fluorescent resorufin, in cell work by metabolically active cells.

Assay [6] relates to T. cruzi epimastigote (INC-5 strain). The assay can be described thus: in vitro evaluation against epimastigotes, INC-5 strain (resazurin). The format is cell-based. As to conditions: Trypanosoma cruzi, 48 h at 28 °C.
Description: as §3

In the next assay the test system is T. cruzi Ninoa strain. The assay can be described thus: in vivo short-term trypanocidal activity (parasitemia) in infected CD1 mice, Ninoa strain. Details: species or system Trypanosoma cruzi in CD1 mice. As for the experimental part:
(§4) Parasitemia was monitored at 2, 4, 6, and 8 h after administration (see Figure 2).
(§5) CD1 strain mice, 6–8 weeks old, were used to maintain Ninoa and INC-5 strains of T. cruzi. Animals were given by the University of Science and Arts of Chiapas. To maintain the strains, animals were intraperitoneally inoculated every 14 days with 1 × 10^5 blood trypomastigote, obtained from parasite-infected mice. Parasitemia was monitored every three days by the Pizzi method. For this, 5 µL of blood from the caudal vein of infected mice were deposited on a slide and evenly distributed with an 18 × 18 mm coverslip. Parasite counting was performed by observing 15 microscopic fields using a 40 × objective lens. For the in vivo short term evaluation of the trypanocidal activity of the FDA-approved drugs, six groups of six CD1 mice each with homogeneous weight and parasitemia were used.
(§6) In vivo short-term evaluation of the trypanocidal activity of the FDA-approved drugs. Six groups of six CD1 female mice were infected with blood trypomastigotes of Ninoa and INC-5 strains following the methodology previously described in Romanha et al. and in Díaz-Chiguer et al.. At day 13 post-infection, when the infected mice reached an average of 5 × 10^6 parasites/mL, a single dose of the FDA-approved drugs at 100 mg/kg body weight was orally administered. Parasitemia was monitored following the Pizzi method at 2, 4, 6, and 8 h post-treatment […] using mineral oil as a vehicle. […] Mice examination was performed as stated in the Norma Official Mexicana (NOM-062-Z00-1999), published on August 2009.

The test system of a further assay is T. cruzi INC-5 strain. In words: in vivo short-term trypanocidal activity (parasitemia) in infected CD1 mice, INC-5 strain. Also on record: species or system Trypanosoma cruzi in CD1 mice. Here is the method:
as §4, §5, §6

For a further assay, the system named is T. brucei. Also on record: method as in Nenortas et al. 70. To be noted: ref Nenortas et al. 70; read-out: EC50, active against T. brucei in vitro; cited from earlier work.
The target in a further assay is T. cruzi DHFR. Details: method as in PMID 12084467. As to conditions: read-out: Ki, inhibitor of T. cruzi DHFR; cited from earlier work.
Assay [7] relates to T. cruzi. Also on record: method as in PMID 25033456. To be noted: read-out: EC50, inhibition of T. cruzi growth in vitro; cited from earlier work.
Throughout, for Trypan. Activity: key: ? indicates unknown activity; + indicates indirect evidence of activity; ++ indicates direct evidence of activity.

Take `Cc1cn(-c2cc(NC(=O)c3ccc(C)c(Nc4nccc(-c5cccnc5)n4)c3)cc(C(F)(F)F)c2)cn1` [Nilotinib]: the “growth inhibitory activity on T. cruzi epimastigotes” value (from here on “growth inhibitory activity”) with T. cruzi epimastigotes was “micromolar range”.
In the case of `COc1ccc2c(c1)C(=O)N(CCc1ccc(S(=O)(=O)NC(=O)NC3CCCCC3)cc1)C(=O)C2(C)C` [Gliquidone], the “growth inhibitory activity” value in the assay on T. cruzi epimastigotes was “micromolar range”.
Take `Cc1cn([C@H]2C[C@H](N=[N+]=[N-])[C@@H](CO)O2)c(=O)[nH]c1=O` [Zidovudine]: the “Trypan. Activity” value in the assay on T. cruzi [1] is “++”. In addition, the “inhibition of T. cruzi reverse transcriptase” value in assay [2] is recorded as “does not inhibit”.
Turning to `O=C(O)c1cn(C2CC2)c2cc(N3CCNCC3)c(F)cc2c1=O` [Ciprofloxacin], the IC50 – broadly, the point on the concentration scale where inhibition reaches its midpoint – was 25.7 ± 0.04 µM in assay [3]; 21.3 ± 0.09 µM in assay [4] (ex vivo, INC-5 strain, 24 h at 4 °C, read-out: T.cruzi blood trypomastigote IC50 INC-5); 21 µM in assay [4] (rounded value in the discussion, refers to Table 3, strain not stated, read-out: IC50, inhibitor of T. cruzi trypomastigotes); greater than 400 µM in assay [5]; greater than 400 µM in [6]. In addition, the “Parasitemia inhibition percentage over the time, 2 horas Ninoa” value in the assay on T. cruzi Ninoa strain (100 mg/kg oral, 2 horas, Ninoa) came to 100. The “Parasitemia inhibition percentage over the time, 4 horas Ninoa” value in the assay with T. cruzi Ninoa strain (100 mg/kg oral, 4 horas, Ninoa) is 50. In addition, the “Parasitemia inhibition percentage over the time, 6 horas Ninoa” value amounted to 33.3 in the assay with T. cruzi Ninoa strain (100 mg/kg oral, 6 horas (first column so headed), Ninoa) and 33.3 with T. cruzi Ninoa strain (100 mg/kg oral, 6 horas (second, last column so headed), Ninoa). Further, the parasitemia inhibition was found to be 66.7% in the assay with T. cruzi Ninoa strain (mice infected with Ninoa strain, single oral dose 100 mg/kg, eight hours after administration) and 43.8% in the assay on T. cruzi INC-5 strain (mice infected with INC-5 strain, single oral dose 100 mg/kg, eight hours after administration). Moreover, the “Parasitemia inhibition percentage over the time, 2 horas INC-5” value in the assay on T. cruzi INC-5 strain (100 mg/kg oral, 2 horas, INC-5) came to 100. In the assay with T. cruzi INC-5 strain (100 mg/kg oral, 4 horas, INC-5), the “Parasitemia inhibition percentage over the time, 4 horas INC-5” value came to 75. Besides, the “Parasitemia inhibition percentage over the time, 6 horas INC-5” value with T. cruzi INC-5 strain (100 mg/kg oral, 6 horas (first column so headed), INC-5) is on record as 62.5; in the assay with T. cruzi INC-5 strain (100 mg/kg oral, 6 horas (second, last column so headed), INC-5) it was 56.2. For the same compound, in the assay with T. brucei, the EC50 (usually the concentration at which the effect is half-maximal) was 52 µM.
Regarding `Cc1cnc(C(=O)NCCc2ccc(S(=O)(=O)NC(=O)NC3CCCCC3)cc2)cn1` [Glipizide], the “growth inhibitory activity” value in the assay with T. cruzi epimastigotes was “micromolar range”.
As for `CCc1nc(N)nc(N)c1-c1ccc(Cl)cc1` [Pyrimethamine], the “Trypan. Activity” value in the assay with T. cruzi [1] was “++”. For the same compound, the Ki (in general, the equilibrium dissociation constant of an inhibitor or competing ligand from its target) at T. cruzi DHFR was 0.1 µM. The EC50 in the assay on T. cruzi [7] is 3.8 µM.
As for `COc1ccc(Cl)cc1C(=O)NCCc1ccc(S(=O)(=O)NC(=O)NC2CCCCC2)cc1` [Glyburide], the “growth inhibitory activity” value in the assay with T. cruzi epimastigotes is on record as “micromolar range”.
